In patent US20130079345A1, “[…] ACTIVE DISUBSTITUTED TRIAZINE DERIVATIVES” (BAYER INTELLECTUAL PROPERTY GMBH, priority 2010, published 2013):
Where a name gives a salt, the structure may show the parent alone.

What was measured:
[1] = system: LPS-induced TNF alpha release in PBMCs; assay: TNF alpha release assay; format: cell-based; details: Homo sapiens, PBMC, 6 h, 1 μg/mL LPS
Description: Freshly isolated peripheral blood mononuclear cells (PBMCs) were seeded in 96-well cell culture plates with 200,000 cells in 100 μl cell culture medium (DMEM cell culture medium+glutamine from PAN Biotech GmbH, Aidenbach, Germany) supplemented with 10% fetal calf serum (PAA Laboratories GmbH, Pasching, Austria) per well and incubated overnight at 37° C., 5% CO2. To each well, 100 μL cell culture medium with 2× concentrated test compounds diluted from 10 mM DMSO stocks, or 100 μL DMEM with 0.4% DMSO for control wells, was added. The compounds of general formula (I) summarized in Table 6 were used in this assay. After incubation for 1 h at 37° C., 5% CO2, cells were stimulated with 1 μg/mL LPS (Lipopolysaccharides, Sigma, catalog #L4391-1MG; 1 mg/ml stock solution), or left untreated for negative controls, and plates were incubated for 6 h at 37° C./5% CO2. The cell culture plates were centrifuged at 2000 rpm for 5 minutes, and supernatants were transferred to fresh 96-well polypropylene plates. 25 µL of supernatants were transferred into 96-well-plates of the human TNF alpha-tissue culture kit (Meso Scale Discovery, Gaithersburg, Md., USA), and manufacturer's instructions were followed for analysis of TNF alpha levels. Chemoluminescence was measured in the Mesoscale Sector Imager, and EC50 values were calculated with the software Excel Fit (IDBS, Guildford, UK) from 2-fold dilution series comprising at least 6 concentrations in duplicates.

CDK7/CyclinH/Mat1 [2] = biological target: T1, CDK7/CyclinH/Mat1 (Homo sapiens, UniProt P50613); assay: LanthaScreen Eu Kinase Binding Assay, CDK7; details: tracer 236, read-out: Affinity (Kd) CDK7
T1 construct: purchased Carna Biosciences
Summary of the method: (§1)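 TR-FRET competition binding with Alexa Fluor 647 tracer and Eu-anti-GST antibody; e.g. CDK2/Cyclin A 15 nM with tracer 236 60 nM (working solutions). Kinase buffer: HEPES 20 mM pH 8.0, MgCl2 10 mM, DTT 1 mM, Brij-35 0.01%; 8-point 1:3 series, 1 h at room temperature; Kd from sigmoidal dose-response curves.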

CDK6/CyclinD3 = biological target: T2, CDK6/CyclinD3 (Homo sapiens, UniProt Q00534); assay: Lance Ultra KinaSelect Assay, CDK6; format: biochemical; details: read-out: Inhibition (IC50) CDK6
T2 construct: purchased Carna
Description: (§2) This protocol describes how the Lance Ultra KinaSelect Assay was performed to determine half maximal inhibitory concentration (IC50) of compounds of general formula (I) and CDK/Cyclin complexes. The principle behind this enzymatic assay is based upon the phosphorylation of the ULight-Peptide Substrat. It is detected by using a specific EU-labeled anti-phospho peptide antibody. The binding of the Eu-labeled anti-phospho peptide antibody to the phosphorylated U Light labeled peptide gives rise to a FRET-signal. Binding of an inhibitor to the kinase prevents phosphorylation of the ULight-MBP Substrat, resulting in a loss of FRET.
(§3) The compounds of general formula (I) summarized in Table 5 were diluted from a 10 mM DMSO stock solution 1:10 in a total volume of 15 μL DMSO. This compound predilution was then serial diluted 1:3 over 8 steps in DMSO and briefly spun down. Each compound solution was now diluted 1:20 in Enzymatic Buffer (HEPES: 50 mM, pH: 7.5; MgCl2: 10 mM; EGTA: 1 mM; DTT: 2 mM; Tween-20: 0.01%), mixed thoroughly and spun down. For every sample, 2 μL of the diluted compound were mixed with 6 μL CDK/Cyclin/Substrat solution and […] in a well of a small volume 384 well plate (Corning Incorporated, Corning, N.Y., USA; order no. 3673). […] For positive controls, in each well 2 μL of DMSO solution (1% final DMSO assay concentration) was mixed with 6 μL CDK/Cyclin/Substrat (appropriate final concentration see Table 3) and 2 μL Tracer ATP solution (appropriate final concentration see Table 3). Positive and negative controls were calculated from at least 8 different sample wells. The 384 well plates were mixed in a Teleshaker plate mixer (Beckman Coulter, Brea, Calif., USA) at 2000 rpm for 40 sec, and incubated for 1 h at room temperature. Before reading, 10 μL detection buffer (Lance Detection Buffer 1×; EDTA: […]; Eu-Anti-P-MBP: see Table 3) was added. The FRET signal was measured at 340 nm excitation, 665 nm and 615 nm emission (for the kinase tracer and LanthaScreen Eu-AB, respectively) with an Envision spectrophotometer (Perkin Elmer, Waltham, Mass., USA) with 50 μs delay and 300 μs integration time. IC50 values were determined from the sigmoidal dose response curves with the software Quattro Workflow (Quattro GmbH, Munich, Germany).

CDK7/CyclinH/Mat1 [3] = biological target: T1, CDK7/CyclinH/Mat1; assay: Lance Ultra KinaSelect Assay, CDK7; format: biochemical; details: ATP 25 μM, read-out: Inhibition (IC50) CDK7
Description: as §2, §3

CDK9/Cyclin K = biological target: T3, CDK9/Cyclin K (Homo sapiens, UniProt P50750); assay: LanthaScreen Eu Kinase Binding Assay, CDK9/Cyclin K; details: tracer 236, read-out: Affinity (Kd) CDK9/Cyclin K
T3 construct: purchased Invitrogen
Summary of the method: as §1

T2 sequence (Q00534 whole entry): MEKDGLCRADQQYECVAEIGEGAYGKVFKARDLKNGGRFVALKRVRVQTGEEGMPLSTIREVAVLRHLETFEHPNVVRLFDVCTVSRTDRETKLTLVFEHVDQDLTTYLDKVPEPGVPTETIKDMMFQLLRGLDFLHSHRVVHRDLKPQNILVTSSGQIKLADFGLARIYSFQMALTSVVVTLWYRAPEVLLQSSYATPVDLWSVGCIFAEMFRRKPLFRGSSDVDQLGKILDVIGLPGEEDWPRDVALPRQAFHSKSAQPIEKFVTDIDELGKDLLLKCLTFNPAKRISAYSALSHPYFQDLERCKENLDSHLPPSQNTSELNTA
T2 sequence (P30281 whole entry partner): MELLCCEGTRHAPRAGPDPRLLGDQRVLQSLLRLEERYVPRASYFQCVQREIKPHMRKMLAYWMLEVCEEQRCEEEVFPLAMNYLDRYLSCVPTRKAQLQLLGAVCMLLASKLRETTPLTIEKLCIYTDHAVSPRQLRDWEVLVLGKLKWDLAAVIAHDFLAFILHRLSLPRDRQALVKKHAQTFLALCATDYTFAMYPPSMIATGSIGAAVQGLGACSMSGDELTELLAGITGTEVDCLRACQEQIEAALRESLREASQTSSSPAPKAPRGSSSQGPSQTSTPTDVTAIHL
T3 sequence (P50750 whole entry): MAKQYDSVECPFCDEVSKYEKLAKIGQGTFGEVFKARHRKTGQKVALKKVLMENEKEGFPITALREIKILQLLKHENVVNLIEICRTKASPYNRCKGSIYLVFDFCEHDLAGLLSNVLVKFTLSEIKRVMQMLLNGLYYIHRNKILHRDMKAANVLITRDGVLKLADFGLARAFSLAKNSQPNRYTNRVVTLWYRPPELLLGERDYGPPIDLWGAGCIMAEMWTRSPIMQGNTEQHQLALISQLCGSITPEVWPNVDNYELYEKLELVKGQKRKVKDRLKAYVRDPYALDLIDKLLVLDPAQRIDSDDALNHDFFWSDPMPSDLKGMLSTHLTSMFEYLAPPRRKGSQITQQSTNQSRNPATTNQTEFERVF
T3 sequence (O75909 whole entry partner): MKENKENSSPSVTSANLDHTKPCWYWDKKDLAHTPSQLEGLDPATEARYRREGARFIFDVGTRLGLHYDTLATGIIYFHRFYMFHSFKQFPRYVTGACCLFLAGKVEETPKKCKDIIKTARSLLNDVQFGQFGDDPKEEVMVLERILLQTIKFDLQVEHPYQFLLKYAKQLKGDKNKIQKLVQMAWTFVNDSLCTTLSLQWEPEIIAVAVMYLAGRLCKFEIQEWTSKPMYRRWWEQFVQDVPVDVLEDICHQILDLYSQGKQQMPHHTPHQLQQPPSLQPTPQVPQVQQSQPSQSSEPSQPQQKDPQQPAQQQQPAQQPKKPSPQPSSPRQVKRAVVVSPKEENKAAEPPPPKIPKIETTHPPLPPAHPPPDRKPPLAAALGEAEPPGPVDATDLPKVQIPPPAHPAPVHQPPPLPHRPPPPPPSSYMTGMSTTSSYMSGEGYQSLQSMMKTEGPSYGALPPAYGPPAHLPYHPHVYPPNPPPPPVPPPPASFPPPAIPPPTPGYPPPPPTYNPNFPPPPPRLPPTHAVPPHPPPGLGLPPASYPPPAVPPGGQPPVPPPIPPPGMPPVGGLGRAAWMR
T1 sequence (P50613 whole entry): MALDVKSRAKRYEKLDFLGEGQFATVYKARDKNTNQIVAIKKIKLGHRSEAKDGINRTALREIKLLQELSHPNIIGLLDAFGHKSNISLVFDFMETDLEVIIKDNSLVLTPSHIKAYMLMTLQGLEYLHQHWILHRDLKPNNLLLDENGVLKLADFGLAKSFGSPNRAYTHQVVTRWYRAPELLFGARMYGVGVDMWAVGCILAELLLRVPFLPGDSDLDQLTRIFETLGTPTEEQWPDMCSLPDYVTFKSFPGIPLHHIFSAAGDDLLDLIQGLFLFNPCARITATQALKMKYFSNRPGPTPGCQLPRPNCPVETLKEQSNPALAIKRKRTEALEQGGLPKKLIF
T1 sequence (P51946 whole entry partner): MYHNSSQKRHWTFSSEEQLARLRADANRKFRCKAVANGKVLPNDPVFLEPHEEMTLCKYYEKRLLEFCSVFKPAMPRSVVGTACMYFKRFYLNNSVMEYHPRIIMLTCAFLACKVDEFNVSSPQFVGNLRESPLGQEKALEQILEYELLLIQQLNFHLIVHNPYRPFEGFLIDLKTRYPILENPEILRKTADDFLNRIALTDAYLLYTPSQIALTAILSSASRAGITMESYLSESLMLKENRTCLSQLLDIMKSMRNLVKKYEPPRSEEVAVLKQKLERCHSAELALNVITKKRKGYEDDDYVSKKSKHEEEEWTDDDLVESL
T1 sequence (P51948 whole entry partner): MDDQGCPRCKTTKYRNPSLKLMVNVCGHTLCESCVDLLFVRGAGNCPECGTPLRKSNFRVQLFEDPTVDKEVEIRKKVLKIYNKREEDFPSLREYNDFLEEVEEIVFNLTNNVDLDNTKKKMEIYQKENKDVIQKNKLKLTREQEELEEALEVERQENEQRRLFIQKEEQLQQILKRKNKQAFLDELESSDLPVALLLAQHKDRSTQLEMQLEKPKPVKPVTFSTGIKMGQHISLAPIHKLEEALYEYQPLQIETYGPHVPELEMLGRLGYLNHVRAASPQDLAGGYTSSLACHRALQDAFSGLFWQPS

Row | Structure (SMILES) | Kd (CDK7/CyclinH/Mat1 [2]) [µM] | IC50 (CDK6/CyclinD3) [µM] | IC50 (CDK7/CyclinH/Mat1 [3]) [µM] | Kd (CDK9/Cyclin K) [µM] | IC50 [1] [µM]
1 | COc1ccccc1-c1ncnc(Nc2cccc(CS(N)(=O)=O)c2)n1 [B1′, 3-[(4-(2-Methoxyphenyl)-1,3,5-triazin-2-yl)amino]benzenemethanesulfonamide trifluoroacetic acid salt] |  | > 10 | > 10 | 0.0487 | 2.71
2 | COc1ccccc1-c1ncnc(Nc2cccc(CS(N)(=O)=O)c2)n1 [Compound B1, 3-[(4-(2-Methoxyphenyl)-1,3,5-triazin-2-yl)amino]benzenemethanesulfonamide] | > 10 |  |  |  | 
3 | COc1ccccc1-c1ncnc(Nc2cccc(S(N)(=O)=O)c2)n1 [C1′, 3-[(4-(2-Methoxyphenyl)-1,3,5-triazin-2-yl)amino]benzenesulfonamide trifluoroacetic acid salt] | > 10 | > 10 | > 10 | 0.005 | 0.5
4 | NS(=O)(=O)Cc1cccc(Nc2ncnc(-c3ccccc3OCc3ccccc3)n2)c1 [B13′, 3-[(4-(2-Benzyloxyphenyl)-1,3,5-triazin-2-yl)amino]benzenemethanesulfonamide trifluoroacetic acid salt] |  | > 10 | > 10 | 0.005 | 0.12
5 | COc1cc(F)ccc1-c1ncnc(Nc2cccc(CS(N)(=O)=O)c2)n1 [B2″, 1-(3-{[4-(4-fluoro-2-methoxyphenyl)-1,3,5-triazin-2-yl]amino}phenyl)methanesulfonamide trifluoroacetic acid salt] |  | > 10 | > 10 | 0.005 | 
6 | COc1cccc(F)c1-c1ncnc(Nc2cccc(CS(N)(=O)=O)c2)n1 [Compound B4, 3-[(4-(6-Fluoro-2-methoxyphenyl)-1,3,5-triazin-2-yl)amino]benzenemethanesulfonamide] | > 10 | > 10 | > 10 | 0.0209 | 6.53
7 | COc1ccc(F)cc1-c1ncnc(Nc2cccc(CS(N)(=O)=O)c2)n1 [Compound B3, 3-[(4-(5-Fluoro-2-methoxyphenyl)-1,3,5-triazin-2-yl)amino]benzenemethanesulfonamide] | > 10 |  |  | 0.005 | 3.24
8 | COc1cc(F)ccc1-c1ncnc(Nc2cccc(CS(N)(=O)=O)c2)n1 [Compound B2, 3-[(4-(4-Fluoro-2-methoxyphenyl)-1,3,5-triazin-2-yl)amino]benzenemethanesulfonamide] | > 10 |  |  |  | 1.03

The next lines start with results.

Row | Kd (CDK7/CyclinH/Mat1 [2]) [µM] | IC50 (CDK6/CyclinD3) [µM] | IC50 (CDK7/CyclinH/Mat1 [3]) [µM] | Kd (CDK9/Cyclin K) [µM] | Structure (SMILES) | IC50 [1] [µM]
9 | > 30 | > 10 | > 10 |  | CCCS(=O)(=O)Nc1cccc(Nc2ncnc(-c3ccccc3OC)n2)c1 [Compound L1, N-[3-((4-(2-Methoxyphenyl)-1,3,5-triazin-2-yl)amino)phenyl]-propanesulfonamide] | 2.41
10 | > 10 |  |  | 0.0264 | NS(=O)(=O)Cc1cccc(Nc2ncnc(-c3ccccc3Oc3ccccc3)n2)c1 [Compound B14, 1-(3-{[4-(2-phenoxyphenyl)-1,3,5-triazin-2-yl]amino}phenyl)methanesulfonamide] | 
11 | > 10 |  |  |  | NS(=O)(=O)Cc1cccc(Nc2ncnc(-c3ccccc3OCc3ccccc3)n2)c1 [Compound B13, 3-[(4-(2-Benzyloxyphenyl)-1,3,5-triazin-2-yl)amino]benzenemethanesulfonamide] | 
12 | > 10 | > 10 | > 10 | 0.0125 | COc1cc(Cl)ccc1-c1ncnc(Nc2cccc(CS(N)(=O)=O)c2)n1 [Compound B6, 3-[(4-(4-Chloro-2-methoxyphenyl)-1,3,5-triazin-2-yl)amino]benzenemethanesulfonamide] | 
13 | > 10 | > 10 | > 10 | 0.0111 | CCOc1ccccc1-c1ncnc(Nc2cccc(CS(N)(=O)=O)c2)n1 [Compound B12, 3-[(4-(2-Ethoxyphenyl)-1,3,5-triazin-2-yl)amino]benzenemethanesulfonamide] | 
14 | > 10 |  |  | 0.0115 | COc1cnccc1-c1ncnc(Nc2cccc(CS(N)(=O)=O)c2)n1 [Compound B19, 3-[(4-(3-Methoxypyridin-4-yl)-1,3,5-triazin-2-yl)amino]benzenemethanesulfonamide] | 10.6
15 | > 30 |  |  |  | COc1ccccc1-c1ncnc(Nc2ccccc2)n1 [Compound P1, 4-(2-Methoxyphenyl)-N-phenyl-1,3,5-triazine-2-amine] | 13.9
16 | > 10 | > 10 | > 10 | 0.005 | COc1cc(F)ccc1-c1ncnc(Nc2cccc(CCS(N)(=O)=O)c2)n1 [Compound D2, 2-[3-((4-(4-Fluoro-2-methoxyphenyl)-1,3,5-triazin-2-yl)amino)phenyl]ethanesulfonamide] | 
17 | > 30 |  |  | 0.0158 | COc1ccccc1-c1ncnc(Nc2cccc([N+](=O)[O-])c2)n1 [Compound H1, 4-(2-Methoxyphenyl)-N-(3-nitrophenyl)-1,3,5-triazine-2-amine] | 2.92
18 | > 10 | > 10 | > 10 | 0.0057 | NS(=O)(=O)Cc1cccc(Nc2ncnc(-c3ccccc3OCc3ccncc3)n2)c1 [Compound B16, 3-[(4-(2-((4-Pyridinyl)methoxy)phenyl)-1,3,5-triazin-2-yl)amino]benzenemethanesulfonamide] | 
19 | > 10 | > 10 | > 10 | 0.0995 | COc1ccccc1-c1ncnc(Nc2cccc(CCS(N)(=O)=O)c2)n1 [Compound D1, 2-[3-((4-(2-Methoxyphenyl)-1,3,5-triazin-2-yl)amino)phenyl]ethanesulfonamide] | 5.37
20 | > 30 | > 10 | > 10 | 0.0359 | COc1ccccc1-c1ncnc(Nc2cccc(NS(C)(=O)=O)c2)n1 [Compound K1, N-[3-((4-(2-Methoxyphenyl)-1,3,5-triazin-2-yl)amino)phenyl]-methanesulfonamide] | 4.42
